The record followed here is PubChem BioAssay (NCI).

Several values for one entry are separate records, joined by “and”; a condition that tells them apart may be missing. Equal entries are not always repeated.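 Exposure lasted 48 hours, with cells grown in 96-well plates and compounds tested at five concentrations. Abbreviation: GI50, concentration required for 50% inhibition of growth. TGI denotes the concentration required for complete inhibition of growth.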

Test systems include K-562 leukemia; CCRF-CEM leukemia; A549 NSCLC; SF-539 CNS; OVCAR-3 ovarian; HOP-62 NSCLC; TK-10 renal; UACC-62 melanoma; SK-OV-3 ovarian; SW-620 colon.
Common to all, as to assay: DTP human tumour cell line panel, 48 h

One may read the GI50 as the concentration giving 50% growth inhibition. Usually TGI stands for the concentration at which net growth stops. Lower therefore signals greater sensitivity of the cells. As for `CON(C)C(=O)N1N=C(c2cc(F)ccc2F)SC1(CCCN)c1ccccc1` (stereo not given), the concentration for 50% growth inhibition (GI50) with K-562 leukemia is below 0.01 µM; in the test with CCRF-CEM leukemia, 0.0115 µM and < 0.01 µM; with A549 NSCLC it was 0.024 µM and < 0.01 µM; with SF-539 CNS it was 0.027 µM; in the test with OVCAR-3 ovarian it was 0.0298 µM and < 0.01 µM; in the test on HOP-62 NSCLC it was 0.0545 µM and < 0.01 µM. In addition, the GI50 in the test with TK-10 renal is 3.19 µM and 2.33 µM; in the test with UACC-62 melanoma, 0.0618 µM and < 0.01 µM; in the test on SK-OV-3 ovarian, below 0.01 µM; in the test with SW-620 colon it was below 0.01 µM. Also, the TGI was 15.1 µM and 14.3 µM in the test on K-562 leukemia; 22.4 µM and 21.6 µM in the test on CCRF-CEM leukemia; 17.1 µM and 18.2 µM in the test on A549 NSCLC; 0.351 µM in the test with SF-539 CNS; 12.4 µM and 12.2 µM in the test on OVCAR-3 ovarian; 18.4 µM and 15.7 µM in the test on HOP-62 NSCLC. In addition, the TGI with TK-10 renal was 18.8 µM and 17.7 µM; with UACC-62 melanoma, 18.8 µM and 16.2 µM; with SK-OV-3 ovarian, 12.6 µM and 12.8 µM; in the test with SW-620 colon, 15.6 µM and 16 µM.
For the molecule `COC(=O)C12C3C4C1C1C2C3C41NC(=O)c1csc([C@@H](C[C@H](C(C)C)N(C)C(=O)[C@@H](NC(=O)[C@H]2CCCCN2C)C2CC2)OC(C)=O)n1` (stereo not given in full), the 50% growth inhibitory concentration (GI50) was 0.00569 µM with K-562 leukemia; 0.00732 µM in the test on CCRF-CEM leukemia; 0.157 µM with A549 NSCLC; 0.00574 µM in the test with SF-539 CNS; 0.0117 µM with OVCAR-3 ovarian; 0.048 µM in the test with HOP-62 NSCLC. The GI50 with TK-10 renal is 4.39 µM; in the test on UACC-62 melanoma, 0.00595 µM; in the test with SK-OV-3 ovarian, 0.148 µM; in the test on SW-620 colon it was 0.00746 µM. Besides, the TGI was above 33.3 µM with K-562 leukemia; above 33.3 µM with CCRF-CEM leukemia; above 33.3 µM in the test with A549 NSCLC; 0.11 µM in the test with SF-539 CNS; 0.86 µM with OVCAR-3 ovarian; above 33.3 µM with HOP-62 NSCLC. For the same molecule, the TGI in the test with TK-10 renal, with UACC-62 melanoma, in the test on SK-OV-3 ovarian and with SW-620 colon was above 33.3 µM each time.
For the molecule `CC[C@H](C)[C@H]1O[C@]2(C=C[C@@H]1C)C[C@@H]1C[C@@H](C/C=C(\C)[C@@H](O[C@H]3C[C@H](OC)[C@@H](O[C@H]4C[C@H](OC)[C@@H](NC)[C@H](C)O4)[C@H](C)O3)[C@@H](C)/C=C/C=C3\CO[C@@H]4[C@H](O)C(C)=C[C@@H](C(=O)O1)[C@]34O)O2`, the GI50 in the test with K-562 leukemia is 1.97 µM; in the test with CCRF-CEM leukemia, 1.87 µM; with A549 NSCLC, 2.01 µM; in the test on SF-539 CNS, 1.81 µM; in the test with OVCAR-3 ovarian, 3.44 µM; in the test on HOP-62 NSCLC, 1.75 µM. For the same molecule, the GI50 is 1.96 µM with TK-10 renal, 1.99 µM in the test with UACC-62 melanoma, 3.63 µM in the test with SK-OV-3 ovarian and 2.14 µM with SW-620 colon. The TGI in the test with K-562 leukemia turned out to be 4.22 µM; with CCRF-CEM leukemia, 4.02 µM; with A549 NSCLC, 6.38 µM; with SF-539 CNS, 3.37 µM; with OVCAR-3 ovarian, 11.8 µM; in the test with HOP-62 NSCLC, 4 µM. For the same molecule, the TGI in the test on TK-10 renal turned out to be 4.99 µM; with UACC-62 melanoma it was 4.28 µM; with SK-OV-3 ovarian it was 13.9 µM; with SW-620 colon, 4.74 µM.
As to `CC(C)(C)c1ccc(O)c(CN(Cc2cc(C(C)(C)C)ccc2O)c2ccccc2)c1`, the total growth inhibition concentration (TGI) in the test on K-562 leukemia is 31.9 µM; in the test on CCRF-CEM leukemia, above 100 µM; in the test on A549 NSCLC, 35.9 µM; in the test with SF-539 CNS, 32 µM; in the test on OVCAR-3 ovarian, 34.1 µM; in the test on HOP-62 NSCLC, 47.6 µM. Moreover, the TGI in the test with TK-10 renal was determined as 31.5 µM; in the test with UACC-62 melanoma, 28.4 µM; with SK-OV-3 ovarian, 84.8 µM; in the test with SW-620 colon it was 37.6 µM.
As to `O=C(/C=C\n1cnc(-c2cc(C(F)(F)F)cc(C(F)(F)F)c2)n1)NNc1cnccn1`, the GI50 was 0.0594 µM in the test with K-562 leukemia; 0.106 µM in the test with CCRF-CEM leukemia; 0.0785 µM in the test on A549 NSCLC; 0.0286 µM with SF-539 CNS; 0.0574 µM in the test with OVCAR-3 ovarian; 0.289 µM in the test on HOP-62 NSCLC. The GI50 was 0.466 µM in the test with TK-10 renal, 0.232 µM in the test with UACC-62 melanoma, 0.643 µM in the test on SK-OV-3 ovarian and 0.0472 µM with SW-620 colon. Further, the total growth inhibition concentration (TGI) is above 38.3 µM in the test with K-562 leukemia; above 100 µM with CCRF-CEM leukemia; 19 µM in the test on A549 NSCLC; 1.12 µM in the test with SF-539 CNS; 4.03 µM in the test with OVCAR-3 ovarian; 15.7 µM in the test on HOP-62 NSCLC. Further, the concentration for total growth inhibition (TGI) with TK-10 renal is 16.5 µM; in the test with UACC-62 melanoma, 6.83 µM; in the test on SK-OV-3 ovarian it was 25.3 µM; in the test with SW-620 colon it was 13.3 µM.
